In ChEMBL document CHEMBL1140597, “Evaluating scoring functions for docking and designing beta-secretase inhibitors” (Bioorg Med Chem Lett, 2007):

What follows are molecules tested against Beta-secretase 1 (Homo sapiens, UniProt P56817) (assay: Inhibition of BACE1).
Chain of Beta-secretase 1 (P56817 whole entry): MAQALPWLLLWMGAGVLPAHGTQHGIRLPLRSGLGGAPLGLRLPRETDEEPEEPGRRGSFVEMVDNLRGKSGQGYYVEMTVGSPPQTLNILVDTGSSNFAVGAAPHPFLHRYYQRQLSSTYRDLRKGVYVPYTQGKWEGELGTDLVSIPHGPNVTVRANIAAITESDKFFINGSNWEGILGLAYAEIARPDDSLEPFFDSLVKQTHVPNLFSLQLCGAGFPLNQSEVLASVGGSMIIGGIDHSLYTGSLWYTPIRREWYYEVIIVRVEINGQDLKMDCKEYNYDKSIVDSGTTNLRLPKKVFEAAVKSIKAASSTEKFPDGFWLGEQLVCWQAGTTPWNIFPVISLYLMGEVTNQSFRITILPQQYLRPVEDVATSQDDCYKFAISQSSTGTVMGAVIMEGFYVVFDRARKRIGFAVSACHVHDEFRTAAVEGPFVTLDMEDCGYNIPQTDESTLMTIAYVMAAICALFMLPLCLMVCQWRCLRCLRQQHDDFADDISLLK

IC50 [nM] | Ki [nM] | Molecule
674 |  | CC(=O)c1ccccc1-c1cc(C(=O)N[C@@H](Cc2ccccc2)[C@H](O)CNC(C)C)cc(C(=O)N[C@H](C)c2ccccc2)c1
348 |  | CC(=O)c1ccccc1-c1cc(C(=O)N[C@@H](Cc2ccccc2)[C@H](O)CN[C@H](C)c2ccccc2)cc(C(=O)N[C@H](C)c2ccccc2)c1
418 |  | CC(=O)c1ccccc1-c1cc(C(=O)N[C@@H](Cc2ccccc2)[C@H](O)CNCC2CC2)cc(C(=O)N[C@H](C)c2ccccc2)c1
> 10000 |  | CC(=O)c1ccccc1-c1cc(C(=O)N[C@@H](Cc2ccccc2)[C@H](O)CN(C)Cc2ccccc2)cc(C(=O)N[C@H](C)c2ccccc2)c1
115 |  | CC(=O)c1ccccc1-c1cc(C(=O)N[C@@H](Cc2ccccc2)[C@H](O)CNCc2ccccc2)cc(C(=O)N[C@H](C)c2ccccc2)c1
> 10000 |  | CC(=O)c1ccccc1-c1cc(C(=O)N[C@@H](Cc2ccccc2)[C@H](O)CN2CCC2)cc(C(=O)N[C@H](C)c2ccccc2)c1

The next lines start with the molecule.

Molecule | IC50 [nM] | Ki [nM]
CC(=O)c1ccccc1-c1cc(C(=O)N[C@H](CO)Cc2ccccc2)cc(C(=O)N[C@H](C)c2ccccc2)c1 | 9900 | 
CSCC[C@H](NC(=O)[C@@H](NC(=O)OC(C)(C)C)C(C)C)C(=O)N[C@@H](CC(C)C)[C@@H](O)C[C@@H](C)C(=O)N[C@H](C(=O)NCc1ccccc1)C(C)C |  | 5810
CC(C)C[C@H](NC(=O)[C@H](CS(C)(=O)=O)NC(=O)[C@@H](NC(=O)OC(C)(C)C)C(C)C)[C@@H](O)C[C@@H](C)C(=O)N[C@H](C(=O)NCc1ccccc1)C(C)C |  | 8
CC(=O)c1ccccc1-c1cc(C(=O)N[C@@H](Cc2ccccc2)[C@H](O)CNc2ccccc2)cc(C(=O)N[C@H](C)c2ccccc2)c1 | 110 | 
H-ELDLAVEF-OH |  | 0.3
C=CCNC[C@@H](O)[C@H](Cc1ccccc1)NC(=O)c1cc(C(=O)N[C@H](C)c2ccccc2)cc(-c2ccccc2C(C)=O)c1 | 223 | 
CC(=O)c1ccccc1-c1cc(C(=O)N[C@@H](Cc2ccccc2)[C@H](O)CNC2CC2)cc(C(=O)N[C@H](C)c2ccccc2)c1 | 317 | 
CC(=O)c1ccccc1-c1cc(C(=O)N[C@@H](Cc2ccccc2)[C@H](O)CN[C@@H](C)c2ccccc2)cc(C(=O)N[C@H](C)c2ccccc2)c1 | 115 | 
CC(=O)c1ccccc1-c1cc(C(=O)N[C@@H](Cc2ccccc2)[C@H](O)CNC2CCC2)cc(C(=O)N[C@H](C)c2ccccc2)c1 | 1400 | 
